Consider 8 compounds from PubChem BioAssay (NCI).

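Values below derive from 48-hour exposures of cells grown in 96-well plates, with endpoints linearly interpolated between the two concentrations bracketing the appropriate inhibition level. At the TGI there is no net growth.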

Test systems include A549 NSCLC; IGROV1 ovarian; RXF 393 renal; SF-295 CNS; HCT-15 colon; LOX IMVI melanoma; SW-620 colon; NCI-H522 lung; 786-0 renal; HCC-2998 colon; UACC-62 melanoma; HOP-92 NSCLC; K-562 leukemia; SN12C renal; OVCAR-3 ovarian; A498 renal; SNB-19 CNS; CCRF-CEM leukemia; RPMI-8226 leukemia; SNB-75 CNS.
Common to all, as to test: inhibition of tumour cell growth, NCI panel, 48 h

With `CC1C/C(=C\c2ccc(OC(=O)C(C)(C)C)cc2)C(=O)/C(=C/c2ccc(OC(=O)C(C)(C)C)cc2)C1` (stereo not given), the TGI in the assay on A549 NSCLC is > 100 µM; in the assay with IGROV1 ovarian, 63.3 µM; in the assay on RXF 393 renal it was 70.9 µM; in the assay with SF-295 CNS, > 100 µM; in the assay with HCT-15 colon it was > 100 µM; in the assay on LOX IMVI melanoma, > 100 µM. Moreover, the TGI in the assay with SW-620 colon is > 100 µM; in the assay on NCI-H522 lung, 15.6 µM; in the assay with 786-0 renal, > 100 µM; with HCC-2998 colon it was > 100 µM; with UACC-62 melanoma it was > 100 µM; with HOP-92 NSCLC it was > 100 µM. The TGI in the assay with K-562 leukemia was > 100 µM; in the assay on SN12C renal, > 100 µM; in the assay on OVCAR-3 ovarian it was > 100 µM; in the assay with A498 renal it was > 100 µM; with SNB-19 CNS, > 100 µM; in the assay with CCRF-CEM leukemia it was 6.25 µM.

`COC(=O)c1ccc(NC(=O)O/N=C(\Cl)C(C)C)cc1`: the TGI with A549 NSCLC worked out at 43.2 µM; in the assay on IGROV1 ovarian, 27.6 µM; in the assay on RXF 393 renal, 19.6 µM; with SF-295 CNS, 33.3 µM; in the assay on HCT-15 colon it was 3.49 µM; with LOX IMVI melanoma it was 4.02 µM. Further, the TGI was 3.77 µM with SW-620 colon; 1.74 µM in the assay with NCI-H522 lung; 4.35 µM in the assay with 786-0 renal; 28.1 µM with HCC-2998 colon; 4.47 µM in the assay with RPMI-8226 leukemia; 27 µM in the assay with UACC-62 melanoma. Besides, the TGI stood at 3.57 µM with HOP-92 NSCLC; 13.9 µM in the assay with SN12C renal; 4.17 µM in the assay on OVCAR-3 ovarian; 26.3 µM in the assay on SNB-75 CNS; 37.6 µM in the assay with A498 renal; 31.8 µM in the assay with SNB-19 CNS.

As for `Clc1ccc(OCc2nnc(CCCCCCCCc3nnc(COc4ccc(Cl)cc4Cl)n3Nc3ccccc3)n2Nc2ccccc2)c(Cl)c1`, the TGI worked out at 64.4 µM in the assay on A549 NSCLC; 47.7 µM in the assay on IGROV1 ovarian; 40.8 µM in the assay on RXF 393 renal; 17.3 µM with SF-295 CNS; 35 µM with HCT-15 colon; 34.3 µM with LOX IMVI melanoma. The TGI with SW-620 colon was > 62.6 µM; in the assay with NCI-H522 lung, 24.7 µM; in the assay with 786-0 renal it was 31.2 µM; with HCC-2998 colon it was 20.8 µM; in the assay with RPMI-8226 leukemia, 16.9 µM; with UACC-62 melanoma, 15.7 µM. In addition, the TGI in the assay on HOP-92 NSCLC is 46.3 µM; with SN12C renal, 38.1 µM; with OVCAR-3 ovarian, 25.4 µM; in the assay on SNB-75 CNS it was 70.3 µM; with A498 renal, 55.6 µM; with SNB-19 CNS, > 61.9 µM.

For the compound `Cc1occc1C(=S)Nc1ccc(Cl)c(C(=O)OC(C(C)C)C(C)C)c1`, the TGI with A549 NSCLC turned out to be 31.8 µM; in the assay with IGROV1 ovarian, 31.5 µM; in the assay on RXF 393 renal it was 33.7 µM; with SF-295 CNS, 18.5 µM; with HCT-15 colon, 33.7 µM; in the assay on LOX IMVI melanoma, 26.3 µM. For the same compound, the TGI amounted to 46.2 µM in the assay with SW-620 colon; 25.9 µM with NCI-H522 lung; 30.9 µM in the assay on 786-0 renal; 21.9 µM with HCC-2998 colon; 29.6 µM in the assay with RPMI-8226 leukemia; 25.7 µM in the assay on UACC-62 melanoma. Also, the TGI in the assay on HOP-92 NSCLC is 22.6 µM; in the assay on SN12C renal, 30.9 µM; in the assay on OVCAR-3 ovarian, 28.3 µM; in the assay on A498 renal, 27.8 µM; with SNB-19 CNS, 58.4 µM; in the assay with CCRF-CEM leukemia, 33 µM.

`CC(C)(Oc1ccccc1)C(=O)Sc1c(-c2ccccc2)c(=O)n(-c2ccccc2)c(=S)n1-c1ccccc1`: the TGI in the assay on A549 NSCLC was > 100 µM; with IGROV1 ovarian it was 47.6 µM; in the assay on RXF 393 renal, 63.2 µM; in the assay with SF-295 CNS, > 100 µM; in the assay with HCT-15 colon it was > 100 µM; with LOX IMVI melanoma, > 100 µM. Also, the TGI was > 100 µM in the assay on SW-620 colon; 64.2 µM in the assay on NCI-H522 lung; > 100 µM in the assay with 786-0 renal; > 100 µM in the assay with HCC-2998 colon; > 100 µM with UACC-62 melanoma; > 100 µM with HOP-92 NSCLC. In addition, the TGI was > 100 µM in the assay with K-562 leukemia; > 100 µM in the assay on SN12C renal; 96.4 µM in the assay on OVCAR-3 ovarian; > 100 µM in the assay on SNB-75 CNS; > 100 µM in the assay with A498 renal; > 100 µM with SNB-19 CNS. In addition, in the assay on CCRF-CEM leukemia, the TGI was > 100 µM.

Turning to `CC(=O)O/C=C1/C[C@H]2[C@@H]3CCC4CC(C(C)=O)CC[C@]4(C)[C@H]3CC[C@]2(C)C1=O` (stereo not given in full), the TGI in the assay with IGROV1 ovarian, with RXF 393 renal, with SF-295 CNS, with HCT-15 colon, in the assay on LOX IMVI melanoma and with SW-620 colon was > 100 µM throughout. For the same compound, the TGI in the assay with NCI-H522 lung, with 786-0 renal, with HCC-2998 colon, in the assay with UACC-62 melanoma, in the assay with HOP-92 NSCLC and in the assay on K-562 leukemia was > 100 µM throughout. Moreover, the TGI is > 100 µM in the assay with SN12C renal; 97.3 µM with OVCAR-3 ovarian; > 100 µM with A498 renal; > 100 µM with SNB-19 CNS; > 100 µM with CCRF-CEM leukemia.

In the case of `CN(C)CCCNc1ccc2c(=O)n(CCN(C)C)c(=O)n3c4ccccc4c(=O)c1c23`, the TGI with A549 NSCLC turned out to be 10.5 µM; with IGROV1 ovarian, 4.33 µM; in the assay with RXF 393 renal, 2.58 µM; with SF-295 CNS, 1.69 µM; with HCT-15 colon it was 1.13 µM; with LOX IMVI melanoma, 0.343 µM. In addition, the TGI was 0.385 µM with NCI-H522 lung; 0.752 µM in the assay with 786-0 renal; 0.267 µM in the assay with HCC-2998 colon; 0.595 µM in the assay on RPMI-8226 leukemia; 1.56 µM in the assay on UACC-62 melanoma; 7.79 µM with HOP-92 NSCLC. The TGI is 0.941 µM with SN12C renal; 3.35 µM with OVCAR-3 ovarian; 7.51 µM with SNB-75 CNS; 5.35 µM in the assay with A498 renal; 3.02 µM in the assay on SNB-19 CNS; > 100 µM in the assay on CCRF-CEM leukemia.

For the compound `CN(C)CCCn1c(Cc2ccc(Cl)cc2)nc2cc(C(F)(F)F)ccc21`, the TGI in the assay on A549 NSCLC turned out to be 32.8 µM; in the assay with IGROV1 ovarian, 27.3 µM; in the assay on RXF 393 renal, 22.7 µM; in the assay on SF-295 CNS it was 31.4 µM; in the assay with HCT-15 colon it was 32.8 µM; in the assay on LOX IMVI melanoma, 29.7 µM. Besides, the TGI was > 57.8 µM in the assay with SW-620 colon; 28.1 µM in the assay on NCI-H522 lung; 27 µM in the assay with 786-0 renal; 3.85 µM in the assay on HCC-2998 colon; > 100 µM in the assay with RPMI-8226 leukemia; 31.2 µM in the assay on UACC-62 melanoma. Further, the TGI in the assay on HOP-92 NSCLC was 22.9 µM; in the assay on K-562 leukemia it was > 32.5 µM; in the assay with SN12C renal it was 29.4 µM; in the assay with OVCAR-3 ovarian, 27.6 µM; in the assay on A498 renal, 25.5 µM; in the assay on SNB-19 CNS, 30.8 µM. The TGI in the assay on CCRF-CEM leukemia is > 43.7 µM.
